Experiments:
Type in all cases: in vivo
RGCs [1] = assay: AION (ischemic optic neuropathy), RGC loss in retinal flat-mounts; details: WT mice, injected into the vitreous at 3, 7 and 14 days post injury, sacrificed 4 weeks after AION, vs IgG isotype
Protocol: OKT3 antibody was injected into the vitreous of ischemia WT mice at 3, 7, and 14 days post injury. Injection of IgG isotype served as the control. All of the recipient mice were sacrificed at 4 weeks after AION.
(§1) A standard procedure for quantification of RGC axon loss in optic nerve sections was used, e.g., as described in Cho et al., J Cell Sci 118, 863-872. (2005). Axonal density was calculated, and the percentage of axon loss was determined by comparing with the axon density calculated from corresponding regions of the contralateral control eyes. RGC loss was assessed quantitatively in retinal flat-mounts that were incubated with a primary antibody against a RGC specific marker, β-III-tubulin (Fournier, A. E. & McKerracher, L. Biochem Cell Biol 73, 659-664 (1995); Fitzgerald et al., Investigative ophthalmology & visual science (2009); Tuj1; Sigma-Aldrich, St.), followed by a Alexa Fluor 488-conjugated secondary antibody. The degree of RGC loss was assessed as previously described (Chen et al., Investigative ophthalmology & visual science 52, 36-44 (2011)). The total numbers and densities of RGCs were calculated, and the percentage of RGC loss was determined by comparing RGC number with that obtained from the corresponding regions of the contralateral control eyes. […]

retinal activity = assay: Electroretinogram a and b wave after AION; details: mice with AION, vs IgG isotype-injected ischemia group, different intensity of light stimulation
RGCs [2] = assay: Optic nerve crush injury, RGC loss at 4 weeks; details: wild-type mice, rapamycin i.p. 100 μg/day, 4 weeks post-optic nerve crush (87% loss without treatment)
Protocol: FIG. 9 is a bar chart showing that suppressing autoimmunity using immuno-deficient mice or immune suppressor promotes RGC survival after optic neuropathy. Optic never crush injury was performed in wild-type (wt) mice that received daily injection of PBS (wt) or rapamycin (Rapam) as well as in Rag1^−/− (Rag1) and TCRβ^−/− (TCRβ) mice. Animals were sacrificed 4 weeks post operation, and percentage of RGC loss was assessed. (*P<0.01 as compared to the normal subject group).
as §1, with “(2011)).” for “(2011)). The total numbers and densities of RGCs were calculated, and the percentage of RGC loss was determined by comparing RGC number with that obtained from the corresponding regions of the contralateral control eyes.”

Molecule | effect on RGC loss after AION (RGCs [1]) | retinal function (electroretinogram a and b wave) after AION (retinal activity) | RGC loss (RGCs [2]) [%]
OKT3 antibody: monoclonal antibody targeted at the CD3 receptor on T cells; clinically approved immunosuppressant | neuroprotective effect | functional rescue of retinal activity | –
CO[C@H]1C[C@@H]2CC[C@@H](C)[C@@](O)(O2)C(=O)C(=O)N2CCCC[C@H]2C(=O)O[C@H]([C@H](C)C[C@@H]2CC[C@@H](O)[C@H](OC)C2)CC(=O)[C@H](C)/C=C(\C)[C@@H](O)[C@@H](OC)C(=O)[C@H](C)C[C@H](C)/C=C/C=C/C=C/1C [rapamycin] | – | – | 65

Source: US20220034903A1, “Therapies That Target Autoimmunity For Treating Glaucoma And Optic Neuropathy” (The Schepens Eye Research Institute, Inc., priority 2011, published 2022)
